In US6492416B1, “4,5-diaryl-3(2H)-furanone derivatives as cyclooxygenase-2 inhibitors” (Pacific Corporation, priority 1999, dated 2002):
Values after ≈ are worked out from the molar mass of the structure shown.

Tests used:
COX-2 = biological target: T1, COX-2 (Mus musculus, UniProt Q05769); test: Evaluation of COX-2 activity: PGE2 formation in aspirin-treated, LPS-stimulated mouse peritoneal macrophages; type: cell-based
T1 sequence (Q05769 18-604): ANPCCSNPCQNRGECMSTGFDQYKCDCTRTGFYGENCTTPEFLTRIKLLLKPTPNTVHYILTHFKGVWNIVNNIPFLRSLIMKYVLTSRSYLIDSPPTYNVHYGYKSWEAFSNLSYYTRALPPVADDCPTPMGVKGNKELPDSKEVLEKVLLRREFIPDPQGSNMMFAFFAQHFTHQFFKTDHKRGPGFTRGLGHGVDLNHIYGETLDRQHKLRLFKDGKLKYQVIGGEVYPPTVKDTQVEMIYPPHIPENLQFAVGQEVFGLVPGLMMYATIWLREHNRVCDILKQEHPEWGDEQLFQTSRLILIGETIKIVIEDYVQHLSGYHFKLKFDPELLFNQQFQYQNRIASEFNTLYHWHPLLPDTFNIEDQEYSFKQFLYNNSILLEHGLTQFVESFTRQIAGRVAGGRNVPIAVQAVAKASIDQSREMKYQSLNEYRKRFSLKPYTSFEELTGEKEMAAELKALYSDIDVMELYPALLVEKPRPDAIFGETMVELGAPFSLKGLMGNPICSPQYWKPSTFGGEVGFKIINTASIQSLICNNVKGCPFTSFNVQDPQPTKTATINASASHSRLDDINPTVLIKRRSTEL
How it was run: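 PGE2 output, quantified by radio- or enzyme-immunoassay, was read after 10 min exposure of cells to compound with 10 μM arachidonic acid. Cells were mouse peritoneal macrophages, COX-1 knocked out with 500 μM aspirin and COX-2 induced by 10 μg/ml LPS over 16 h. IC50 derived from 4–5 concentrations.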

COX-1 = biological target: T2, COX-1 (Mus musculus, UniProt P22437); test: Evaluation of COX-1 activity: PGE2 formation in mouse peritoneal macrophages without aspirin and LPS treatment; type: cell-based
T2 sequence (P22437 27-602): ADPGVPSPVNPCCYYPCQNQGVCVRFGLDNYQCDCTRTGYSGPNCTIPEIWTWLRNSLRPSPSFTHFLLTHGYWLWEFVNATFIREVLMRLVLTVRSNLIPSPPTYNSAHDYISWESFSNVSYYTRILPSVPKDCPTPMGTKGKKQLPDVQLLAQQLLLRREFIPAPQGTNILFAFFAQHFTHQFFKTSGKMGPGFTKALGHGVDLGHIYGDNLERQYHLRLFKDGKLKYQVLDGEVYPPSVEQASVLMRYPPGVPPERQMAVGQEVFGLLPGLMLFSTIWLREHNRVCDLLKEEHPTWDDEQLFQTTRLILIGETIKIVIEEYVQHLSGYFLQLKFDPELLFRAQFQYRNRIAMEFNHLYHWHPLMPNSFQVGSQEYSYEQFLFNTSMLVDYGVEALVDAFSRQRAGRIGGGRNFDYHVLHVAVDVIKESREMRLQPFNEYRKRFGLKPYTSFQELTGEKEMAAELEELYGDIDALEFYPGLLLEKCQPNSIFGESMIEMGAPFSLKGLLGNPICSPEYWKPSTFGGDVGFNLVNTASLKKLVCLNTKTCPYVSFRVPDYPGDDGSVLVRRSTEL
How it was run: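 Peritoneal macrophages from C57BL/6 mice, without aspirin or LPS treatment, were plated at 1×10^6 cells/ml and fixed 2 h at 37 °C. Cells were preincubated 10 min, then given 10 μM arachidonic acid plus compound for 10 min; PGE2 was measured by RIA or EIA. IC50 came from 4–5 concentrations.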

[1] = Pharmacokinetic studies in rats; type: in vivo, rat; details: metabolite in plasma after oral administration of Example 393 to a SD rat at 10 mg/kg body weight (FIG. 1)
Method: An appropriate amount of a compound suspended 1% aqueous methylcellulose solution was administered to a male SD rat by oral gavage. Blood samples were collected from the retro-orbital sinus at designated times over 24˜48 hours. Plasma was separated from each blood sample by centrifugation and the plasma was stored at 4° C. until analysis. The plasma samples prepared thereby were subjected to analysis by reverse phase HPLC (high performance liquid chromatography) using an appropriate internal standard.

CC1(C)OC(c2ccc(S(C)(=O)=O)cc2)=C(c2cccc(Cl)c2)C1=O [Example 62, 4-(3-Chlorophenyl)-2,2-dimethyl-5-{4-(methylsulfonyl)phenyl}-3(2H)-furanone]
melting point: 151 to 152 °C | IC50, μg/ml COX-2 (COX-2): 0.01 µg/mL (≈ 0.0265 µM) | IC50, μg/ml COX-1 (COX-1): 2 µg/mL (≈ 5.31 µM) | amounts detected in the plasma [1]: appreciable amounts
